Data taken from US20020137929A1, “1 - (3-heterocyclylphenyl) isothiourea, -isourea, -guanidine and -amidine herbicidal agents” (Intellectual Property Department, BASF Aktiengesellschaft, priority 1998, published 2002).

Key:
ECHCG (Barnyardgrass) [1] = assay: Postemergence herbicidal evaluation; assay type: in vivo, Echinochloa crus-galli; conditions: postemergence
In short: (§1)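 Two-week seedlings sprayed postemergence at 40 psi; formulation: 1:1 acetone/water, 0.5% TWEEN 20; application ≈0.0156–0.500 kg/ha. Greenhouse grow-out, then 0–9 visual scoring at 4–5 weeks.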

ECHCG (Barnyardgrass) [2] = assay: Preemergence herbicidal evaluation; assay type: in vivo, Echinochloa crus-galli; conditions: rated 4-5 weeks after treatment, rating scale 0-9
In short: (§2)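 Steps: mix seeds into potting soil; plant atop ~1 inch soil; spray compound in aqueous acetone (~0.0156-0.500 kg/ha equivalent); maintain in greenhouse with watering; rate visually 0-9 versus control at 4-5 weeks.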

[3] = system: IPOHE (Morningglory, Ivyleaf); assay: Postemergence herbicidal evaluation; assay type: in vivo, Ipomoea hederacea; conditions: postemergence
In short: as §1

[4] = system: IPOHE (Morningglory, Ivyleaf); assay: Preemergence herbicidal evaluation; assay type: in vivo, Ipomoea hederacea; conditions: rated 4-5 weeks after treatment, rating scale 0-9
In short: as §2

[5] = system: GLXMAW (Soybean, Williams); assay: Preemergence herbicidal evaluation; assay type: in vivo, Glycine max, (L.) Merr. cv Williams; conditions: rated 4-5 weeks after treatment, rating scale 0-9
In short: as §2

[6] = system: CHEAL (Lambsquarters, Common); assay: Preemergence herbicidal evaluation; assay type: in vivo, Chenopodium album; conditions: rated 4-5 weeks after treatment, rating scale 0-9
In short: as §2

SETVI (Foxtail, Green) = assay: Postemergence herbicidal evaluation; assay type: in vivo, Setaria viridis; conditions: postemergence
In short: as §1

ABUTH (Velvetleaf) [7] = assay: Preemergence herbicidal evaluation; assay type: in vivo, Abutilon theophrasti; conditions: rated 4-5 weeks after treatment, rating scale 0-9
In short: as §2

[8] = system: TRZAWR (Wheat, Winter, cv Riband); assay: Preemergence herbicidal evaluation; assay type: in vivo, Triticum aestivum; conditions: rated 4-5 weeks after treatment, rating scale 0-9
In short: as §2

[9] = system: CHEAL (Lambsquarters, Common); assay: Postemergence herbicidal evaluation; assay type: in vivo, Chenopodium album; conditions: postemergence
In short: as §1

ABUTH (Velvetleaf) [10] = assay: Postemergence herbicidal evaluation; assay type: in vivo, Abutilon theophrasti; conditions: postemergence
In short: as §1

ORYSAT (Rice, Tebonnet) = assay: Postemergence herbicidal evaluation; assay type: in vivo, Oryza sativa, (L.) Tebonnet; conditions: postemergence
In short: as §1

CASOB (Sicklepod) = assay: Preemergence herbicidal evaluation; assay type: in vivo, Cassia obtusifolia; conditions: rated 4-5 weeks after treatment, rating scale 0-9
In short: as §2

ZEAMX (Corn, Field) [11] = assay: Preemergence herbicidal evaluation; assay type: in vivo, Zea mays; conditions: rated 4-5 weeks after treatment, rating scale 0-9
In short: as §2

ZEAMX (Corn, Field) [12] = assay: Postemergence herbicidal evaluation; assay type: in vivo, Zea mays; conditions: postemergence
In short: as §1

Cc1ccc(CN2C(=O)CSC2=Nc2cc(-n3c(=O)cc(C(F)(F)F)n(C)c3=O)c(F)cc2Cl)cc1C [Compound 147, 3-{4-Chloro-5-{[3-(3,4-dimethylbenzyl)-4-oxo-2-thiazolidinylidene]amino}-2-fluorophenyl}-1-methyl-6-(trifluoromethyl)-2,4(1H,3H)-pyrimidinedione]
herbicidal rating ECHCG (ECHCG (Barnyardgrass) [1]; rate 0.0156 kg/ha): 1.0
herbicidal rating ECHCG (ECHCG (Barnyardgrass) [1]; rate 0.0313 kg/ha): 2.0
herbicidal rating ECHCG (ECHCG (Barnyardgrass) [1]; rate 0.0625 kg/ha): 1.0
Preemergence herbicidal rating ECHCG (ECHCG (Barnyardgrass) [2]; rate 0.0156 kg/ha): 0.0
Preemergence herbicidal rating ECHCG (ECHCG (Barnyardgrass) [2]; rate 0.0313 kg/ha): 0.0
Preemergence herbicidal rating ECHCG (ECHCG (Barnyardgrass) [2]; rate 0.0625 kg/ha): 0.0
Preemergence herbicidal rating ECHCG (ECHCG (Barnyardgrass) [2]; rate 0.1250 kg/ha): 0.0
Preemergence herbicidal rating ECHCG (ECHCG (Barnyardgrass) [2]; rate 0.2500 kg/ha): 0.0
herbicidal rating IPOHE ([3]; rate 0.0156 kg/ha): 9.0
herbicidal rating IPOHE ([3]; rate 0.0313 kg/ha): 9.0
herbicidal rating IPOHE ([3]; rate 0.0625 kg/ha): 9.0
Preemergence herbicidal rating IPOHE ([4]; rate 0.0156 kg/ha): 0.0
Preemergence herbicidal rating IPOHE ([4]; rate 0.0313 kg/ha): 0.0
Preemergence herbicidal rating IPOHE ([4]; rate 0.0625 kg/ha): 0.0
Preemergence herbicidal rating IPOHE ([4]; rate 0.1250 kg/ha): 0.0
Preemergence herbicidal rating IPOHE ([4]; rate 0.2500 kg/ha): 0.0
Preemergence herbicidal rating GLXMAW ([5]; rate 0.0156 kg/ha): 1.0
Preemergence herbicidal rating GLXMAW ([5]; rate 0.0313 kg/ha): 0.0
Preemergence herbicidal rating GLXMAW ([5]; rate 0.0625 kg/ha): 0.0
Preemergence herbicidal rating GLXMAW ([5]; rate 0.1250 kg/ha): 0.0
Preemergence herbicidal rating GLXMAW ([5]; rate 0.2500 kg/ha): 1.0
Preemergence herbicidal rating CHEAL ([6]; rate 0.0156 kg/ha): 0.0
Preemergence herbicidal rating CHEAL ([6]; rate 0.0313 kg/ha): 0.0
Preemergence herbicidal rating CHEAL ([6]; rate 0.0625 kg/ha): 6.0
Preemergence herbicidal rating CHEAL ([6]; rate 0.1250 kg/ha): 9.0
Preemergence herbicidal rating CHEAL ([6]; rate 0.2500 kg/ha): 9.0
herbicidal rating SETVI (SETVI (Foxtail, Green); rate 0.0156 kg/ha): 1.0
herbicidal rating SETVI (SETVI (Foxtail, Green); rate 0.0313 kg/ha): 1.0
herbicidal rating SETVI (SETVI (Foxtail, Green); rate 0.0625 kg/ha): 2.0
Preemergence herbicidal rating ABUTH (ABUTH (Velvetleaf) [7]; rate 0.0156 kg/ha): 0.0
Preemergence herbicidal rating ABUTH (ABUTH (Velvetleaf) [7]; rate 0.0313 kg/ha): 0.0
Preemergence herbicidal rating ABUTH (ABUTH (Velvetleaf) [7]; rate 0.0625 kg/ha): 0.0
Preemergence herbicidal rating ABUTH (ABUTH (Velvetleaf) [7]; rate 0.1250 kg/ha): 4.0
Preemergence herbicidal rating ABUTH (ABUTH (Velvetleaf) [7]; rate 0.2500 kg/ha): 7.0
Preemergence herbicidal rating TRZAWR ([8]; rate 0.0156 kg/ha): 0.0
Preemergence herbicidal rating TRZAWR ([8]; rate 0.0313 kg/ha): 0.0
Preemergence herbicidal rating TRZAWR ([8]; rate 0.0625 kg/ha): 0.0
Preemergence herbicidal rating TRZAWR ([8]; rate 0.1250 kg/ha): 0.0
Preemergence herbicidal rating TRZAWR ([8]; rate 0.2500 kg/ha): 0.0
herbicidal rating CHEAL ([9]; rate 0.0156 kg/ha): 5.0
herbicidal rating CHEAL ([9]; rate 0.0313 kg/ha): 6.0
herbicidal rating CHEAL ([9]; rate 0.0625 kg/ha): 9.0
herbicidal rating ABUTH (ABUTH (Velvetleaf) [10]; rate 0.0156 kg/ha): 9.0
herbicidal rating ABUTH (ABUTH (Velvetleaf) [10]; rate 0.0313 kg/ha): 9.0
herbicidal rating ABUTH (ABUTH (Velvetleaf) [10]; rate 0.0625 kg/ha): 9.0
herbicidal rating ORYSAT (ORYSAT (Rice, Tebonnet); rate 0.0156 kg/ha): 1.5
herbicidal rating ORYSAT (ORYSAT (Rice, Tebonnet); rate 0.0313 kg/ha): 2.5
herbicidal rating ORYSAT (ORYSAT (Rice, Tebonnet); rate 0.0625 kg/ha): 3.5
Preemergence herbicidal rating CASOB (CASOB (Sicklepod); rate 0.0156 kg/ha): 0.0
Preemergence herbicidal rating CASOB (CASOB (Sicklepod); rate 0.0313 kg/ha): 0.0
Preemergence herbicidal rating CASOB (CASOB (Sicklepod); rate 0.0625 kg/ha): 0.0
Preemergence herbicidal rating CASOB (CASOB (Sicklepod); rate 0.1250 kg/ha): 0.0
Preemergence herbicidal rating CASOB (CASOB (Sicklepod); rate 0.2500 kg/ha): 5.0
Preemergence herbicidal rating ZEAMX (ZEAMX (Corn, Field) [11]; rate 0.0156 kg/ha): 1.0
Preemergence herbicidal rating ZEAMX (ZEAMX (Corn, Field) [11]; rate 0.0313 kg/ha): 1.0
Preemergence herbicidal rating ZEAMX (ZEAMX (Corn, Field) [11]; rate 0.0625 kg/ha): 0.0
Preemergence herbicidal rating ZEAMX (ZEAMX (Corn, Field) [11]; rate 0.1250 kg/ha): 1.0
Preemergence herbicidal rating ZEAMX (ZEAMX (Corn, Field) [11]; rate 0.2500 kg/ha): 2.0
herbicidal rating ZEAMX (ZEAMX (Corn, Field) [12]; rate 0.0156 kg/ha): 4.0
herbicidal rating ZEAMX (ZEAMX (Corn, Field) [12]; rate 0.0313 kg/ha): 4.5
herbicidal rating ZEAMX (ZEAMX (Corn, Field) [12]; rate 0.0625 kg/ha): 4.5
